In patent publication US20140005412A1, “TREATMENT OF ARTERIAL AGEING BY HMG CoA REDUCTASE INHIBITOR” (FARMICOM PHARMACEUTICAL COMPANY D.O.O., priority 2011, published 2014):

Legend:
[1] = tested on: right common carotid artery; experiment: Ultrasound measurement of β-stiffness of carotid artery; assay type: in vivo, human; conditions: for β-stiffness, residual improvement in % of effect achieved after 1 month of treatment: Example 5
Experimental: Fifty apparently healthy male individuals (42.6±1.9 years) were recruited in double blind, randomized study. Inclusion criteria were: The control group (n=25) received placebo, while the test group (n=25) received subtherapeutic daily dose of fluvastatin sodium-10 mg daily (the recommended therapeutic daily dose is 40 to 80 mg) during a period of 1 month-30 days. All subjects underwent clinical examination, blood pressure measurements ([…] automated sphygmomanometer) and ultrasound measurement of flow-mediated dilatation of brachial artery (FMD), pulse-wave velocity (PWV) and β-stiffness of carotid artery at inclusion (0th day) and after 1 month (30th day) of the study. Fasting blood samples were taken at the beginning and at the end of the study for laboratory analysis. Blood glucose, electrolytes and cholesterol were obtained using the VITRO 5.1 FS Chemical system (Ortho Clinical Diagnostics, Inc.). The measurements of PWV and β-stiffness were performed on the right common carotid artery. The Aloka ultrasound device was also equipped with special software for automatic determination of the PWV and beta-stiffness through the analysis of pulse waves (Carerj S et al. Normal vascular aging evaluated by a new tool: e-tracking. Eur J Echocardiography 2006; suppl: S 49). All values were expressed as arithmetic mean±SEM and were normally distributed. Differences between values recorded at the beginning (0th day) and at the end of the study (30th day) were determined by one-way analysis of variance (ANOVA). When a significant interaction was present, the Bonferroni post-test was performed. […] All statistical analyses were performed using Graph Pad Prism 5.0 software.

[2] = blood plasma; cited from earlier work
arterial wall = experiment: "Biological" arterial age according to age-related normogram; assay type: in vivo, human
brachial artery = experiment: Ultrasound measurement of flow-mediated dilatation of brachial artery (FMD), endothelial function; assay type: in vivo, human; conditions: for FMD, after treatment: after 1 month (30 days) treatment; for FMD, improvement: after 1 month vs before treatment
Experimental: Fifty apparently healthy male individuals (42.6±1.9 years) were recruited in double blind, randomized study. Inclusion criteria were: The control group (n=25) received placebo, while the test group (n=25) received subtherapeutic daily dose of fluvastatin sodium-10 mg daily (the recommended therapeutic daily dose is 40 to 80 mg) during a period of 1 month-30 days. All subjects underwent clinical examination, blood pressure measurements ([…] automated sphygmomanometer) and ultrasound measurement of flow-mediated dilatation of brachial artery (FMD), pulse-wave velocity (PWV) and β-stiffness of carotid artery at inclusion (0th day) and after 1 month (30th day) of the study. Fasting blood samples were taken at the beginning and at the end of the study for laboratory analysis. Blood glucose, electrolytes and cholesterol were obtained using the VITRO 5.1 FS Chemical system (Ortho Clinical Diagnostics, Inc.). Ultrasound measurements were performed by a single examiner using Aloka ProSound Alpha 10 echo-machine. Endothelial function was measured by means of FMD on the brachial artery according to FMD guidelines (Corretti M C et al. Guidelines for the ultrasound assessment of endothelial-dependent flow-mediated vasodilation of the brachial artery: a report of the International Brachial Artery Reactivity Task Force. J Am Coll Cardiol 2002; 39: 257-65). The echo-machine continuously tracked and recorded the brachial artery diameter. Following the measurement of baseline brachial artery diameter (1 min), the forearm blood pressure cuff was inflated to 50 mmHg above the systolic pressure for 4 min. After the occlusion period, the cuff was rapidly deflated, inducing reactive hyperemia, and the brachial artery diameter was recorded for 3 min. At the end of the measurement, the machine automatically provided the values of FMD. All values were expressed as arithmetic mean±SEM and were normally distributed. Differences between values recorded at the beginning (0th day) and at the end of the study (30th day) were determined by one-way analysis of variance (ANOVA). When a significant interaction was present, the Bonferroni post-test was performed. […] All statistical analyses were performed using Graph Pad Prism 5.0 software.

[3] = Example 4, 10 mg daily, after 1 month vs before treatment
[4] = Example 4, 10 mg daily, before treatment
[5] = Example 6, ten participants, 10 mg daily, 1. intervention, before
[6] = Example 6, 1. intervention, after 1 month of treatment
[7] = Example 6, 2. intervention (repetition), after 1 month of treatment
[8] = Example 6, 2. intervention (repetition), before, after rest period of 12 months
[9] = Example 2, rest period 7 months
[10] = Example 2, rest period 8 months
[11] = Example 5, rest period 3 months
[12] = Example 5, rest period 5 months
[13] = Example 5, rest period 8 months

CC(C)n1c(/C=C/C(O)CC(O)CC(=O)O)c(-c2ccc(F)cc2)c2ccccc21 (centres unmarked) [Fluvastatin sodium, fluvastatin sodium]
β-stiffness, after treatment ([1]; Example 4, 10 mg daily, after 1 month (30 days) treatment): 6.10 U
β-stiffness, improvement [1, 3]: −12.7%
β-stiffness, before treatment [1, 4]: 6.88 U
β-stiffness, residual improvement in % of effect achieved after 1 month of treatment ([1]; rest period 3 months): 50.1%
β-stiffness, residual improvement in % of effect achieved after 1 month of treatment ([1]; rest period 5 months): 33.6%
β-stiffness, residual improvement in % of effect achieved after 1 month of treatment ([1]; rest period 8 months): 3.1%
β-stiffness [1, 5]: 6.4 ± 0.8 U
β-stiffness [1, 6]: 5.7 ± 0.7 U
β-stiffness [1, 7]: 6.0 ± 0.6 U
β-stiffness [1, 8]: 6.6 ± 0.6 U
half-life time (t1/2) [2]: about 2.5 hours
Arterial age according to age-related normogram (arterial wall; [9]): 43.6 years
Arterial age according to age-related normogram, difference (in brackets) to before treatment (arterial wall; [9]): −1.4 years
Arterial age according to age-related normogram (arterial wall; [10]): 44.5 years
Arterial age according to age-related normogram, after treatment (arterial wall; Example 4, 10 mg daily, after 1 month treatment): 32.0 years
Arterial age according to age-related normogram, improvement (arterial wall; [3]): −9.0 years
Arterial age according to age-related normogram, before treatment (arterial wall; [4]): 41.0 years
Arterial age according to age-related normogram (arterial wall; [11]): 34.2 years
Arterial age according to age-related normogram, difference (in brackets) to before treatment (arterial wall; [11]): −6.8 years
Arterial age according to age-related normogram (arterial wall; [12]): 36.4 years
Arterial age according to age-related normogram, difference (in brackets) to before treatment (arterial wall; [12]): −4.6 years
Arterial age according to age-related normogram (arterial wall; [13]): 40.0 years
Arterial age according to age-related normogram, difference (in brackets) to before treatment (arterial wall; [13]): −1.0 years
FMD, after treatment (brachial artery; Example 1, 10 mg daily): 4.39%
FMD, improvement (brachial artery; Example 1, 10 mg daily): +91.0%
FMD, before treatment (brachial artery; Example 1, 10 mg daily): 2.31%
FMD increased by (brachial artery; Example 1 study (50 subjects, double-blind), 10 mg, after 30 days of treatment): 91.0%
FMD, residual improvement in % of effect achieved after 1 month of treatment (brachial artery; Example 2 (participants of Example 1), rest period 5 months): 53.3%
FMD, residual improvement in % of effect achieved after 1 month of treatment (brachial artery; [9]): 33%
FMD, residual improvement in % of effect achieved after 1 month of treatment (brachial artery; [10]): 10.5%
FMD increased by (brachial artery; Example 4, 10 mg daily, after 1 month treatment period): 120.8%
FMD, after treatment (brachial artery; Example 4, 10 mg daily): 5.30%
FMD, improvement (brachial artery; Example 4, 10 mg daily): +120.8%
FMD, before treatment (brachial artery; Example 4, healthy males n=15, 10 mg daily): 2.40%
FMD, residual improvement in % of effect achieved after 1 month of treatment (brachial artery; Example 5 (participants of Example 4), rest period 3 months): 73.4%
FMD, residual improvement in % of effect achieved after 1 month of treatment (brachial artery; [12]): 55.2%
FMD, residual improvement in % of effect achieved after 1 month of treatment (brachial artery; [13]): 16.3%
FMD (brachial artery; [5]): 3.5 ± 0.6%
FMD (brachial artery; [6]): 5.3 ± 0.6%
FMD (brachial artery; [7]): 5.7 ± 0.2%
FMD (brachial artery; [8]): 3.9 ± 0.8%
